Where “and” joins values, the source holds several entries; their conditions need not be identical. Equal values may be shown once.
Test system: subjects with chronic idiopathic thrombocytopenic purpura (ITP)
Experiment: Phase 2 double-blind placebo-controlled dose-ranging 28-day study of E5501 tablets: platelet count response (responder rate)
Type: in vivo, human
Conditions: for Responder, Yes / Responder, No: Day 28; for Subjects Who Maintained Responder Status, No / Subjects Who Maintained Responder Status, Yes: completer population; for Subjects Who Maintained Responder Status, Yes: Day 7 response maintained to Day 28; for subjects with increased platelet counts that met the criteria for positive response / response: day 28; for subjects with increased platelet counts that met the criteria for positive response: FAS
Experimental: This was a phase 2, multi-center, double-blind, randomized, placebo-controlled, dose-ranging, parallel group study of E5501 tablets, used in the treatment of subjects with chronic idiopathic thrombocytopenic purpura (ITP) refractory to or relapsed after at least one prior ITP therapy. Subjects who met all entry criteria were randomly assigned in a 3:3:3:3:1 ratio to one of the following five treatment groups dosed daily for 28 days: 1) E5501 2.5 mg; 2) E5501 5 mg; 3) E5501 10 mg; 4) E5501 20 mg; or 5) placebo (PBO). Each E5501 dosing group consisted of 15 subjects while the PBO group consisted of 5 subjects. All study subjects were evaluated weekly (days 7, 14, 21 and 28) for safety and efficacy while receiving study treatment, with a final assessment for safety and effectiveness performed 4 weeks after the last study dose (day 56) unless the subject entered the follow-on study. Platelet counts were also measured on day 3 and day 5.
The primary objective of this study was to assess platelet count response to E5501 on day 28. The response rate was defined as the proportion of subjects who were not on steroids with a screening visit B platelet count <30,000/mm^3 and who achieved a platelet count ≧50,000/mm^3, together with the proportion of subjects receiving steroids with a screening visit B platelet count ≧30,000/mm^3 but <50,000/mm^3 who achieved a platelet count ≧20,000/mm^3 above their screening visit B platelet count. Secondary objectives of the study included the evaluation of other markers of effectiveness, including changes in peripheral blood platelet count, the proportion of subjects who achieved a platelet count ≧50,000/mm^3 and ≧100,000/mm^3, and the proportion of subjects who achieved a doubling of their platelet count at screening visit B and the assessment of the safety and tolerability of E5501.
Primary efficacy endpoint. The primary endpoint in this study was E5501 responder rate on day 28. A responder is defined as a subject with screening visit B platelet count <30,000/mm^3 who achieves a platelet count ≧50,000/mm^3 or a subject receiving steroids with a screening visit B platelet count ≧30,000/mm^3 but <50,000/mm^3 who achieves a platelet count ≧20,000/mm^3 above their screening visit B platelet count.
The secondary endpoints included changes from screening visit B in peripheral blood platelet counts over time; the proportion of subjects who achieved a platelet count of ≧50,000/mm^3 or ≧100,000/mm^3 on day 28 and the proportion of subjects whose platelet count doubled compared to their platelet count at Screening Visit B.
The populations of interest were defined as follows: • The randomized population included all subjects who were randomized into the study. • The safety population included all randomized subjects who receive at least one dose of study drug and have at least one safety assessment. • The pharmacokinetic (PK) population included all subjects who provided blood sample for analysis of E5501. A subject was included in this population if the subject had at least one blood draw for PK assessment. • The full analysis set (FAS) included all subjects who provided adequate data to derive at least one efficacy assessment. […] The day 28 visit window was defined to be from day 25, to last dose day+1, inclusively; • Other major protocol violations that impacted the platelet endpoint evaluation. Results from Planned Analyses
Primary Efficacy Endpoint. The analysis of efficacy was performed both on the FAS population and the PP population at day 28 visit with LOCF and observed case (OC) approaches. The primary analysis population was the FAS. Fisher's exact test was used to examine the difference of response rates among each treatment pair. All p-values are nominal without adjustment for multiplicity.
Secondary Efficacy Endpoint. Analyses for secondary efficacy endpoints were performed by treatment group and by analysis visit using both LOCF and OC methods. […]

[1] = No Previous History of Splenectomy, 20 mg
[2] = No Previous History of Splenectomy, Total E5501
[3] = Number of Lines of Prior Therapy <3, 2.5 mg
[4] = Number of Lines of Prior Therapy <3, 5 mg
[5] = Number of Lines of Prior Therapy <3, 10 mg
[6] = Number of Lines of Prior Therapy <3, 20 mg
[7] = Number of Lines of Prior Therapy <3, Total E5501
[8] = Number of Lines of Prior Therapy ≧3, 2.5 mg
[9] = Number of Lines of Prior Therapy ≧3, 5 mg
[10] = Number of Lines of Prior Therapy ≧3, 10 mg
[11] = Number of Lines of Prior Therapy ≧3, 20 mg
[12] = Number of Lines of Prior Therapy ≧3, Total E5501
[13] = Per Protocol Population, 2.5 mg
[14] = Per Protocol Population, Total E5501
[15] = Previous History of Splenectomy, 2.5 mg
[16] = Previous History of Splenectomy, 5 mg
[17] = Previous History of Splenectomy, 10 mg
[18] = Previous History of Splenectomy, 20 mg
[19] = Previous History of Splenectomy, Total E5501

O=C(Nc1nc(-c2cc(Cl)cs2)c(N2CCN(C3CCCCC3)CC2)s1)c1cnc(N2CCC(C(=O)O)CC2)c(Cl)c1 [E5501, 1-(3-chloro-5-{[4-(4-chlorothiophen-2-yl)-5-(4-cyclohexylpiperazin-1-yl)thiazol-2-yl]carbamoyl}pyridine-2-yl)piperidine-4-carboxylic acid]
Responder, Yes (No Previous History of Splenectomy, 10 mg): 6 (54.5) n (%)
Responder, No [1]: 1 (11.1) n (%)
Responder, Yes [1]: 8 (88.9) n (%)
Responder, No [2]: 20 (48.8) n (%)
Responder, Yes [2]: 21 (51.2) n (%)
Responder, No [3]: 3 (100.0) n (%)
Responder, Yes [3]: 0 n (%)
Responder, No [4]: 4 (44.4) n (%)
Responder, Yes [4]: 5 (55.6) n (%)
Responder, No [5]: 1 (25.0) n (%)
Responder, Yes [5]: 3 (75.0) n (%)
Responder, No [6]: 1 (14.3) n (%)
Responder, Yes [6]: 6 (85.7) n (%)
Responder, No [7]: 9 (39.1) n (%)
Responder, Yes [7]: 14 (60.9) n (%)
Responder, No [8]: 10 (83.3) n (%)
Responder, Yes [8]: 2 (16.7) n (%)
Responder, No [9]: 3 (50.0) n (%)
Responder, Yes [9]: 3 (50.0) n (%)
Responder, No [10]: 6 (60.0) n (%)
Responder, Yes [10]: 4 (40.0) n (%)
Responder, No [11]: 2 (25.0) n (%)
Responder, Yes [11]: 6 (75.0) n (%)
Responder, No [12]: 21 (58.3) n (%)
Responder, Yes [12]: 15 (41.7) n (%)
Responder, No (Other Site Pooled, 2.5 mg): 8 (88.9) n (%)
Responder, Yes (Other Site Pooled, 2.5 mg): 1 (11.1) n (%)
Responder, No (Other Site Pooled, 5 mg): 6 (60.0)2 n (%)
Responder, Yes (Other Site Pooled, 5 mg): 4 (40.0) n (%)
Responder, No (Other Site Pooled, 10 mg): 4 (57.1) n (%)
Responder, Yes (Other Site Pooled, 10 mg): 3 (42.9) n (%)
Responder, No (Other Site Pooled, 20 mg): 1 (16.7) n (%)
Responder, Yes (Other Site Pooled, 20 mg): 5 (83.3) n (%)
Responder, No (Other Site Pooled, Total E5501): 19 (59.4) n (%)
Responder, Yes (Other Site Pooled, Total E5501): 13 (40.6) n (%)
Responder, No [13]: 11 (84.6) n (%)
Responder, Yes [13]: 2 (15.4) n (%)
Responder, No (Per Protocol Population, 5 mg): 7 (53.8) n (%)
Responder, Yes (Per Protocol Population, 5 mg): 6 (46.2) n (%)
Responder, No (Per Protocol Population, 10 mg): 5 (41.7) n (%)
Responder, Yes (Per Protocol Population, 10 mg): 7 (58.3) n (%)
Responder, No (Per Protocol Population, 20 mg): 3 (25.0) n (%)
Responder, Yes (Per Protocol Population, 20 mg): 9 (75.0) n (%)
Responder, No [14]: 26 (52.0) n (%)
Responder, Yes [14]: 24 (48.0) n (%)
Responder, No [15]: 4 (80.0) n (%)
Responder, Yes [15]: 1 (20.0) n (%)
Responder, No [16]: 2 (50.0) n (%)
Responder, Yes [16]: 2 (50.0) n (%)
Responder, No [17]: 2 (66.7) n (%)
Responder, Yes [17]: 1 (33.3) n (%)
Responder, No [18]: 2 (33.3) n (%)
Responder, Yes [18]: 4 (66.7) n (%)
Responder, No [19]: 10 (55.6) n (%)
Responder, Yes [19]: 8 (44.4) n (%)
Responder, No (Site 132, 2.5 mg): 5 (83.3) n (%)
Responder, Yes (Site 132, 2.5 mg): 1 (16.7) n (%)
Responder, No (Site 132, 5 mg): 1 (20.0) n (%)
Responder, Yes (Site 132, 5 mg): 4 (80.0) n (%)
Responder, No (Site 132, 10 mg): 3 (42.9) n (%)
Responder, Yes (Site 132, 10 mg): 4 (57.1) n (%)
Responder, No (Site 132, 20 mg): 2 (22.2) n (%)
Responder, Yes (Site 132, 20 mg): 7 (77.8) n (%)
Responder, No (Site 132, Total E5501): 11 (40.7) n (%)
Responder, Yes (Site 132, Total E5501): 16 (59.3) n (%)
responder rate (by Day 7, 2.5 mg): 6.7%
responder rate (by Day 7, 5 mg): 66.7%
responder rate (by Day 7, 10 mg): 64%
responder rate (by Day 7, 20 mg): 93.3% and 93%
subjects who achieved an increase in platelet count by ≧50,000/mm^3 (by Day 7, 20 mg): Approximately 90%
Subjects Who Maintained Responder Status, No (2.5 mg): 13 (100.0) n (%)
Subjects Who Maintained Responder Status, No (5 mg): 10 (71.4) n (%)
Subjects Who Maintained Responder Status, No (10 mg): 7 (58.3) n (%)
Subjects Who Maintained Responder Status, No (20 mg): 3 (23.1) n (%)
Subjects Who Maintained Responder Status, Yes (2.5 mg): 0 n (%)
Subjects Who Maintained Responder Status, Yes (5 mg): 4 (28.6) n (%)
Subjects Who Maintained Responder Status, Yes (10 mg): 5 (41.7) n (%)
Subjects Who Maintained Responder Status, Yes (20 mg): 10 (76.9) n (%)
Subjects Who Maintained Responder Status, Yes (Total E5501): 19 (36.5) n (%)
Subjects Who Maintained Responder Status, No (Total E5501): 33 (63.5) n (%)
subjects with increased platelet counts that met the criteria for positive response (2.5 mg): 13.3%
subjects with increased platelet counts that met the criteria for positive response (5 mg): 53.3%
subjects with increased platelet counts that met the criteria for positive response (10 mg): 50%
subjects with increased platelet counts that met the criteria for positive response (20 mg): 80%
response (other sites pooled, 5 mg): 40%
response (site 132, 5 mg): 80%
subjects who responded by day 7 (dose of ≧5 mg): 57.6%
overall response rate (highest dose of E5501 tested): 80-93%
reduction of response rates from day 7 to 28 days (lower E5501 dose groups): about 30%
subjects treated with E5501 who responded by day 3 (of 13 subjects): One
subjects treated with E5501 who responded by day 5 (of 19 subjects): 6 subjects

— US20110166112A1, “METHOD FOR STIMULATING PLATELET PRODUCTION” (Eisai, Inc., priority 2009, published 2011)
